Data as given in ChEMBL document CHEMBL1139796, “Novel anti-tuberculosis agents from MCR libraries” (Bioorg Med Chem Lett, 2007).
≈ marks a conversion by molar mass, not a printed value.

What was measured:
[1] = tested on: Mycobacterium tuberculosis; test: Antimycobacterial activity against Mycobacterium tuberculosis H37Rv by broth microdilution alamar blue assay; type: functional
Vero = test: Cytotoxicity against Vero cells; type: cell-based; details: Chlorocebus sabaeus
[2] = Selectivity index, IC50 for Vero cells to MIC for Mycobacterium tuberculosis H37Rv; type: functional
[3] = tested on: Mycobacterium tuberculosis; test: Reduction of Mycobacterium tuberculosis H37Rv growth in mouse peritoneal macrophage monolayers after 7 days; type: functional; details: 168 h

| Compound | MIC [1] | IC50 (Vero) | Selectivity index [2] | EC90 [3] | EC99 [3] |
| --- | --- | --- | --- | --- | --- |
| CC(C)CCN(C(=O)c1cccnc1)C(C(=O)NCc1cccnc1)c1ccccc1 (centres undefined) | 3.13 µg/mL (≈ 7.51 µM) | 50.3 µg/mL (≈ 121 µM) | 16.1 | > 12.5 µg/mL | > 12.5 µg/mL |
| C=CCNC(=O)C(CCCC)N(CC=C)C(=O)c1cccnc1.Cl (centres undefined) | 3.13 µg/mL | 31.1 µg/mL | 9.9 | – | – |
| C=CCNC(=O)C1(OC(=O)c2cccnc2)CCN(Cc2ccccc2)CC1 | 6.25 µg/mL (≈ 16.5 µM) | > 62.5 µg/mL | >10 | – | – |
| CCCCC(C(=O)NCc1ccccc1)N(C(=O)c1cnccn1)C1CCCCC1 (centres undefined) | 3.13 µg/mL (≈ 7.66 µM) | 27.9 µg/mL (≈ 68.3 µM) | 9.9 | – | – |
